Laboratory results from patent US8778919B2, “Cyclic anilino—pyridinotriazines” (Janssen Pharmaceutica NV, priority 2005, dated 2014).

Assays:
Format in all cases: biochemical
[1] = molecular target: CDK6/cyclinD3 human (Homo sapiens, UniProt Q00534); assay: Kinase profiling C3.7 CDK6/cyclinD3 human; conditions: CDK6/cyclinD3, test concentration of 10^−6 M
Procedure: (§1) The in vitro inhibition of a panel of kinases was assessed using either the glass-fiber filter technology as described by Davies, S. P. et al., Biochem J. (2000), 351; p. 95-105. In the glass-fiber filter technology the activity of the kinase of interest is measured using an appropriate substrate that is incubated with the aforementioned kinase protein in the presence of (^33P) radiolabeled ATP. (^33P) Phosporylation of the substrate is subsequently measured as radioactivity bound on a glassfiber-filter.
(§2) All kinases are pre-diluted to a 10× working concentration prior to addition into the assay. The composition of the dilution buffer for each kinase is detailed below.
(§3) All substrates are dissolved and diluted to working stocks in de-ionised water, apart from histone H1 that is stored in 10× working stock in 20 mM MOPS pH 7.4.
(§4) In a final reaction volume of 25 μl, CDK6/cyclinD3 human (5-10 mU) is incubated with 8 mM MOPS pH 7.0, 0.2 mM EDTA, 0.1 mg/ml histone H1, 10 mM MgAcetate and [γ-^33P-ATP] (specific activity approx. 500 cpm/pmol, concentration as required). The reaction is initiated by the addition of the MgATP mix. After incubation for 40 minutes at room temperature, the reaction is stopped by the addition of 5 μl of a 3% phosphoric acid solution. 10 μl of the reaction is then spotted onto a P30 filtermat and washed three times for 5 minutes in 75 mM phosphoric acid and once in methanol prior to drying and scintillation counting.

[2] = molecular target: GSK-3α (Homo sapiens, UniProt P49840); assay: GSK-3 kinase assay (C1), GSK-3α; conditions: 1 μM ATP, read-out: C1 Score α
Procedure: (§5) In vitro GSK-3 assays were performed at room temperature in a 100 μl reaction volume of 25 mM Tris (pH 7.4) containing 10 mM MgCl2.6H2O, 1 mM DTT, 0.1 mg/ml BSA, 5% glycerol, 5.7 ng/μl GSK-3β or 0.25 ng/μl GSK-3α, 5 μM biotinylated CREB peptide, 1 μM ATP, 0.85 μCi/ml ^33P-ATP and a suitable amount of a test compound. After one hour, the reaction was terminated by adding 70 μl of Stop mix (0.1 mM ATP, 5 mg/ml streptavidin coated PVT SPA beads, pH 11.0). The beads were allowed to settle overnight and the radioactivity attached to the beads was counted in a microtiter plate scintillation counter and compared with the results obtained in a control experiment (without the presence of a test compound) in order to determine the percentage of GSK-3 inhibition. The IC50 value, i.e. the concentration (M) of the test compound at which 50% of GSK-3 is inhibited, was calculated from the dose response curve obtained by performing the above-described GSK-3 assay in the presence of different amounts of the test compound. Score 1=pIC50 value<6, Score 2=pIC50 value from 6-7, Score 3=pIC50 value from 7-8, Score 4=pIC50 value>8.

[3] = molecular target: CDK5/p35 human (Homo sapiens, UniProt Q00535); assay: Kinase profiling C3.6 CDK5/p35 human; conditions: CDK5/p35, test concentration of 10^−6 M
Procedure: as §1, §2, §3
as §4, with “CDK5/p35” for “CDK6/cyclinD3”

[4] = molecular target: CDK7/cyclinH/MAT1 (h) (Homo sapiens, UniProt P50613); assay: Kinase profiling C3.8 CDK7/cyclinH/MAT1 human; conditions: CDK7/cyclinH/MAT1, test concentration of 10^−6 M
Procedure: as §1, §2, §3
as §4, with “CDK7/cyclinH/MAT1 (h)” for “CDK6/cyclinD3 human”, “500 μM peptide,” for “0.1 mg/ml histone H1,”

[5] = molecular target: CDK2/cyclinE (h) (Homo sapiens, UniProt P24941); assay: Kinase profiling C3.4 CDK2/cyclinE human; conditions: test concentration of 10^−6 M
Procedure: as §1, §2, §3
as §4, with “CDK2/cyclinE (h)” for “CDK6/cyclinD3 human”

[6] = molecular target: CDK2/cyclinA (h) (Homo sapiens, UniProt P24941); assay: Kinase profiling C3.3 CDK2/cyclinA human; conditions: test concentration of 10^−6 M
Procedure: as §1, §2, §3
as §4, with “CDK2/cyclinA (h)” for “CDK6/cyclinD3 human”

[7] = molecular target: CDK1/cyclinB (h) (Homo sapiens, UniProt P06493); assay: Kinase profiling C3.2 CDK1/cyclinB human; conditions: test concentration of 10^−6 M
Procedure: as §1, §2, §3
as §4, with “CDK1/cyclinB (h)” for “CDK6/cyclinD3 human”

[8] = molecular target: CDK3/cyclinE (h) (Homo sapiens, UniProt Q00526); assay: Kinase profiling C3.5 CDK3/cyclinE human; conditions: test concentration of 10^−6 M
Procedure: as §1, §2, §3
as §4, with “CDK3/cyclinE (h)” for “CDK6/cyclinD3 human”

[9] = molecular target: GSK-3β (Homo sapiens, UniProt P49841); assay: GSK-3 kinase assay (C1), GSK-3β; conditions: 1 μM ATP, read-out: C1 Score β
Procedure: as §5

GSK-3β, sequence (P49841 whole entry, species assumed): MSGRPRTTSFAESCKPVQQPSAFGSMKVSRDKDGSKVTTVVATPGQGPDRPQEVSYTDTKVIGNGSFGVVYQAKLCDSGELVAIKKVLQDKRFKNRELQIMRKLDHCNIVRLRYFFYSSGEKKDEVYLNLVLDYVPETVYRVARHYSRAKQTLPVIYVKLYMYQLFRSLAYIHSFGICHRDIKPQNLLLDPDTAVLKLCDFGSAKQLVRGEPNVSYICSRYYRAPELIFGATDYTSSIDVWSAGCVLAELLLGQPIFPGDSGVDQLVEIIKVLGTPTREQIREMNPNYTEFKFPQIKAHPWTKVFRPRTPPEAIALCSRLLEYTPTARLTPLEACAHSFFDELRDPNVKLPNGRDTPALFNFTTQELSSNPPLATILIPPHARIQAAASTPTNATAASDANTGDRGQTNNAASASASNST
CDK5/p35 human, sequence (Q00535 whole entry): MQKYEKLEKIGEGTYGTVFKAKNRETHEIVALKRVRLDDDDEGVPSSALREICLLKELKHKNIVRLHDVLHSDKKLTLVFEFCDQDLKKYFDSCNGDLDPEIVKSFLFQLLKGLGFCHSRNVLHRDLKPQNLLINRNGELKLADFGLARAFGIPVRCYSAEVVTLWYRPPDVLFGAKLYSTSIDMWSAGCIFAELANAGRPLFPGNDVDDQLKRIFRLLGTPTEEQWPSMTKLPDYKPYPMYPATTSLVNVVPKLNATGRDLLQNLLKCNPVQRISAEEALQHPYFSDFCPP
CDK5/p35 human, sequence (Q15078 whole entry partner): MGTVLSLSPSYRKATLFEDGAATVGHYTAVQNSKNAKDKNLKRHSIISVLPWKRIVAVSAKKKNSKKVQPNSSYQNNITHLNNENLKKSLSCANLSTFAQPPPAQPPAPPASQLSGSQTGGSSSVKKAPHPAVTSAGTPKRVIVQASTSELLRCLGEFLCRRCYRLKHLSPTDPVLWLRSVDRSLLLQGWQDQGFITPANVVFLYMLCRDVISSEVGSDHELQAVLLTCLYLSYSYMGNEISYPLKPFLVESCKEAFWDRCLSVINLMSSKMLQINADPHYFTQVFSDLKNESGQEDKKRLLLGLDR
CDK6/cyclinD3 human, sequence (Q00534 whole entry): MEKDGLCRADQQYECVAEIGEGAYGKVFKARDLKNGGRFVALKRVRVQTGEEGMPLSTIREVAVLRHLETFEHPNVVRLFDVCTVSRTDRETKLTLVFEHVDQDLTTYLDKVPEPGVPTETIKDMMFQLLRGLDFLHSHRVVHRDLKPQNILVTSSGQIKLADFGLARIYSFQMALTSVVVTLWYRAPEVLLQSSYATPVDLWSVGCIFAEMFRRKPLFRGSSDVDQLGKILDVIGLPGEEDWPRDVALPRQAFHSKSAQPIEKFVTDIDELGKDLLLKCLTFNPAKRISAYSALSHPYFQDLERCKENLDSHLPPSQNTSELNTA
CDK6/cyclinD3 human, sequence (P30281 whole entry partner): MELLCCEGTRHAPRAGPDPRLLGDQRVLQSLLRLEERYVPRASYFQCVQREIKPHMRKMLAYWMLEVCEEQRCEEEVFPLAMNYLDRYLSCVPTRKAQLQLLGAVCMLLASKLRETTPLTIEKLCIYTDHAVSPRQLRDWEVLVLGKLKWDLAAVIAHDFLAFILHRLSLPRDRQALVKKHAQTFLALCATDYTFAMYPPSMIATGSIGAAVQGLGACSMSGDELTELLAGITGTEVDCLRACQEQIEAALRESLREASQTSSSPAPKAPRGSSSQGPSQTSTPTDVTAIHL
CDK1/cyclinB (h), sequence (P06493 whole entry): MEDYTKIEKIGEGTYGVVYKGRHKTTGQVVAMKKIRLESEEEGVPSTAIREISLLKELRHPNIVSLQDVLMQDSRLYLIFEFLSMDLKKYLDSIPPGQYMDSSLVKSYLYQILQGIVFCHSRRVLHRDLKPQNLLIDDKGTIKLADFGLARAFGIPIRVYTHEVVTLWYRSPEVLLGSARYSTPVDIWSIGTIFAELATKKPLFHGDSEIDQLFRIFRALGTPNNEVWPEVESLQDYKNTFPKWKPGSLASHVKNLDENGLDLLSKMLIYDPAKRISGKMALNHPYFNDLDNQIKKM
CDK1/cyclinB (h), sequence (P14635 whole entry partner): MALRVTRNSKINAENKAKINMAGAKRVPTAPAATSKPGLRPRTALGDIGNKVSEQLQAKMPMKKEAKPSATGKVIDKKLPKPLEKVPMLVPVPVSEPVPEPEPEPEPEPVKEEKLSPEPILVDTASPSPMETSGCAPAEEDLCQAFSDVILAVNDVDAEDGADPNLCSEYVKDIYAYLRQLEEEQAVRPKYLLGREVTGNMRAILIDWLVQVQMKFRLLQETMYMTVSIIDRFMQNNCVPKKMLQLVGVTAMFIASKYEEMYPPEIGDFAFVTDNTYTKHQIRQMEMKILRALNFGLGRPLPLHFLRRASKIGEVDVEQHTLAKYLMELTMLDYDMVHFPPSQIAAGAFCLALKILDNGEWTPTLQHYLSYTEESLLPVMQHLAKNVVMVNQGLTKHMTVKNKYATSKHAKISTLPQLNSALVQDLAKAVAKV
GSK-3α, sequence (P49840 whole entry, species assumed): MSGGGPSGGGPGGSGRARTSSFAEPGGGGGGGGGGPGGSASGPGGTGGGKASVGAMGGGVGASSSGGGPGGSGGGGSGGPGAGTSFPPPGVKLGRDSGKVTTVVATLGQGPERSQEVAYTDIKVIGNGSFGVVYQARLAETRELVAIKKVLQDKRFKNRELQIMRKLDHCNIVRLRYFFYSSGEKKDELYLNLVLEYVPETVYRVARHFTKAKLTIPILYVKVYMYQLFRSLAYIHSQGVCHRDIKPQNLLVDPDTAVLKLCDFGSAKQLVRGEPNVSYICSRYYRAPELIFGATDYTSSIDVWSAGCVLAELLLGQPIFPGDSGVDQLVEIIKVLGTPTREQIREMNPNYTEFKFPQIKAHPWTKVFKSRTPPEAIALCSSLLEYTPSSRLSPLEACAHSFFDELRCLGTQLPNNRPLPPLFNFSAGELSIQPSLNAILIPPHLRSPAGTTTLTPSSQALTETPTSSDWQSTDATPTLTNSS
CDK7/cyclinH/MAT1 (h), sequence (P50613 whole entry): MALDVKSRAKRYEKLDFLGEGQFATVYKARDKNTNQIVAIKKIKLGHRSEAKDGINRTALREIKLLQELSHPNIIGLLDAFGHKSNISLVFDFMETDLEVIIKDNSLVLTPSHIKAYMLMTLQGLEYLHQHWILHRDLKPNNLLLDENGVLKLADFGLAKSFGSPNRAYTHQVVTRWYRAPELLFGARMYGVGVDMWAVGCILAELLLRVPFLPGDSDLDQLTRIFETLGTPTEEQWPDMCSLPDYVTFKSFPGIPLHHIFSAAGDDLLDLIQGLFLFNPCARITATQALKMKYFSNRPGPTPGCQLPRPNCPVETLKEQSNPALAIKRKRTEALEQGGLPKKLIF
CDK7/cyclinH/MAT1 (h), sequence (P51946 whole entry partner): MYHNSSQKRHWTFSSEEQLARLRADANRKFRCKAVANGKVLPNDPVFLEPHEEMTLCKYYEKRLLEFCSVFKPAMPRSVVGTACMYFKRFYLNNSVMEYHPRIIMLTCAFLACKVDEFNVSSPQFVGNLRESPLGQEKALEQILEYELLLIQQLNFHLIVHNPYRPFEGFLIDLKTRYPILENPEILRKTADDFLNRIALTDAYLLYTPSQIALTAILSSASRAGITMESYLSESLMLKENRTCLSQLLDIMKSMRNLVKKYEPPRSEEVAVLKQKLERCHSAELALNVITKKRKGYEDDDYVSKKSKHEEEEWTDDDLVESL
CDK7/cyclinH/MAT1 (h), sequence (P51948 whole entry partner): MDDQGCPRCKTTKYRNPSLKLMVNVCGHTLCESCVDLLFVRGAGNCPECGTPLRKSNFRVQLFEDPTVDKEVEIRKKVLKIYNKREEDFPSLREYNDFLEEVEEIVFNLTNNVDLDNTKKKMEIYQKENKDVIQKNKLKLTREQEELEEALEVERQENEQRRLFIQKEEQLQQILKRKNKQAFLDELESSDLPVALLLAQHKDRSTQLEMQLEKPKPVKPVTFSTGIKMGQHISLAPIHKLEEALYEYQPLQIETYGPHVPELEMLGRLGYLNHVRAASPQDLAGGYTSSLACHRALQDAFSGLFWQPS

Compound | C3.7 score [1] | IC50 [2] [nM] | C3.6 score [3] | C3.8 score [4] | C3.4 score [5] | C3.3 score [6] | C3.2 score [7] | C3.5 score [8] | IC50 [9] [nM]
O=C1CCN2CCN(CC2)Cc2cccc(c2)Nc2ncnc(n2)-c2ccnc(c2)NCCCN1 [Compound 22] | 1 (Score 1 = 10-30% inhibition) | 100 to 1000 | 2 (Score 2 = 30-60% inhibition) | 1 (Score 1 = 10-30% inhibition) | 4 (Score 4 = >80% inhibition) | 4 (Score 4 = >80% inhibition) | 4 (Score 4 = >80% inhibition) | 4 (Score 4 = >80% inhibition) | 100 to 1000
CN1Cc2cccc(c2)Nc2ncnc(n2)-c2ccnc(c2)NCCCNC(=O)CCN2CCC1CC2 [Compound 23] | 1 (Score 1 = 10-30% inhibition) | 100 to 1000 | 2 (Score 2 = 30-60% inhibition) | 1 (Score 1 = 10-30% inhibition) | 4 (Score 4 = >80% inhibition) | 3 (Score 3 = 60-80% inhibition) | 2 (Score 2 = 30-60% inhibition) | 3 (Score 3 = 60-80% inhibition) | 100 to 1000
CN1CCCC(=O)NCCc2cccc(c2)Nc2ncnc(n2)-c2ccnc(c2)CCC1 [Compound 24] | 1 (Score 1 = 10-30% inhibition) | 100 to 1000 | 2 (Score 2 = 30-60% inhibition) | 3 (Score 3 = 60-80% inhibition) | 3 (Score 3 = 60-80% inhibition) | 3 (Score 3 = 60-80% inhibition) | 2 (Score 2 = 30-60% inhibition) | 2 (Score 2 = 30-60% inhibition) | 10 to 100
O=C1NCCc2cccc(c2)Nc2ncnc(n2)-c2ccnc(c2)CCCN2C[C@H](O)C[C@@H]12 [Compound 25] | 2 (Score 2 = 30-60% inhibition) | 10 to 100 | 2 (Score 2 = 30-60% inhibition) | 2 (Score 2 = 30-60% inhibition) | 4 (Score 4 = >80% inhibition) | 4 (Score 4 = >80% inhibition) | 3 (Score 3 = 60-80% inhibition) | 3 (Score 3 = 60-80% inhibition) | 10 to 100
O=C1NCCc2cccc(c2)Nc2ncnc(n2)-c2ccnc(c2)CCCN2CCCC1C2 (stereo not drawn) [Compound 26] | 1 (Score 1 = 10-30% inhibition) | 10 to 100 | 2 (Score 2 = 30-60% inhibition) | 2 (Score 2 = 30-60% inhibition) | 4 (Score 4 = >80% inhibition) | 3 (Score 3 = 60-80% inhibition) | 1 (Score 1 = 10-30% inhibition) | 3 (Score 3 = 60-80% inhibition) | 10 to 100
O=C1CC2CCN(CCCc3cc(ccn3)-c3ncnc(n3)Nc3cccc(c3)CCN1)CC2 [Compound 27] | 1 (Score 1 = 10-30% inhibition) | 100 to 1000 | 2 (Score 2 = 30-60% inhibition) | 1 (Score 1 = 10-30% inhibition) | 2 (Score 2 = 30-60% inhibition) | 3 (Score 3 = 60-80% inhibition) | 2 (Score 2 = 30-60% inhibition) | 1 (Score 1 = 10-30% inhibition) | 100 to 1000
CN1CC(=O)NCCCc2cc(ccn2)-c2ncnc(n2)Nc2cc(Cl)ccc2C1 [Compound 31] | 1 (Score 1 = 10-30% inhibition) | > 1000 | 4 (Score 4 = >80% inhibition) | 1 (Score 1 = 10-30% inhibition) | 3 (Score 3 = 60-80% inhibition) | 2 (Score 2 = 30-60% inhibition) | 3 (Score 3 = 60-80% inhibition) | 4 (Score 4 = >80% inhibition) | > 1000
CN1CCC(=O)NCCCc2cc(ccn2)-c2ncnc(n2)Nc2cc(Cl)cc(c2)C1 [Compound 32] | 1 (Score 1 = 10-30% inhibition) | 10 to 100 | 4 (Score 4 = >80% inhibition) | 2 (Score 2 = 30-60% inhibition) | 4 (Score 4 = >80% inhibition) | 4 (Score 4 = >80% inhibition) | 4 (Score 4 = >80% inhibition) | 3 (Score 3 = 60-80% inhibition) | 10 to 100
O=C1CCN2CCN(CC2)Cc2cc(Cl)cc(c2)Nc2ncnc(n2)-c2ccnc(c2)CCCN1 [Compound 37] | 2 (Score 2 = 30-60% inhibition) | 10 to 100 | 4 (Score 4 = >80% inhibition) | 3 (Score 3 = 60-80% inhibition) | 4 (Score 4 = >80% inhibition) | 4 (Score 4 = >80% inhibition) | 4 (Score 4 = >80% inhibition) | 4 (Score 4 = >80% inhibition) | 10 to 100
